SMILES strings stand for the structures. Values after ≈ are worked out from the molar mass of the structure shown.

The conditions of this data set: buffer; pH 7.4; 200.0 µM.
`O=C(CSc1nccc(=O)[nH]1)NCc1ccco1` returned a kinetic solubility above 39.8 µg/mL. For `COc1ccc([N+](=O)[O-])cc1NC(=O)C1(c2ccccc2)CCOCC1`, the kinetic solubility was 6.7 µg/mL (≈ 18.8 µM). In the case of `Cc1ccc(S(=O)(=O)/N=C(/c2ccc(F)cc2)N(C)C)cc1` it was above 48.1 µg/mL; in that of `O=C(CSc1nc(C(F)(F)F)cc(=O)[nH]1)N1CCCC1`, above 46.1 µg/mL. In the case of `COc1ccc(Oc2nc3c(c(=O)n(C)c(=O)n3C)n2C)cc1` it was above 47.4 µg/mL. `CN1CCN(c2c(F)cc([N+](=O)[O-])c(N)c2Br)CC1` registered a kinetic solubility above 50 µg/mL. `COc1ccc(N2C(=O)NC(=O)C2=O)cc1` yielded a kinetic solubility above 33 µg/mL. In the case of `Cc1c(C(=O)OCC(=O)Nc2ccc(C(=O)N(C)C)cc2)oc2ccccc12` it was 6.6 µg/mL (≈ 17.4 µM).

`O=C(Cc1ccc(Cl)cc1)NC1CCS(=O)(=O)C1` (centres undefined) yielded a kinetic solubility above 43.2 µg/mL. The molecule `Cc1cnc(NC(=O)c2ccc(OCC3CCCO3)cc2)s1` (centres undefined) came in with a kinetic solubility of 7.8 µg/mL (≈ 24.5 µM).

For `CCN(CC)CCCN=C(C)C1=C(O)c2ccccc2C1=O`, the kinetic solubility was above 45.1 µg/mL. In turn, `Cc1cccc(-c2nc(-c3ccncc3)no2)c1` displayed a solubility (kinetic) of 3.4 µg/mL (≈ 14.3 µM). For `O=C(Nc1ccc(F)cc1)c1cccc(N2C(=O)c3ccccc3C2=O)c1` the value was 0.7 µg/mL (≈ 1.94 µM); for `O=C(Nc1nonc1-c1ccc(Cl)cc1)c1ccccc1`, 0.7 µg/mL (≈ 2.34 µM). With `Cc1nc([N+](=O)[O-])cn1C(C)C`, the solubility (kinetic) was above 25.4 µg/mL. For `COC(=O)CSc1nc(NC#N)nc(NC(C)(C)C)n1` the value was 36.7 µg/mL (≈ 124 µM). For `CC(=O)N/C(=C\c1ccccc1)C(=O)Nc1ccc(O)cc1` the value was above 44.4 µg/mL; for `Cc1cccc(NC(=O)C2CCN(C(=O)c3ccco3)CC2)c1C`, above 49 µg/mL. Molecule `Cc1nc2ccccc2[nH]c1=O` registered a kinetic solubility above 24 µg/mL.

For `C=C(C)CN(Cc1ccccc1)C(=S)Nc1ccccc1`, the kinetic solubility was determined as 1.9 µg/mL (≈ 6.41 µM).

As to `Cc1ccc2[nH]c(C)c(CC(=O)NCc3ccccc3)c2c1`, the solubility (kinetic) is above 43.9 µg/mL. Molecule `Cc1ccc2[nH]c(C(=O)O)c(NC(=O)[C@@H]3C[C@@H]3c3ccccc3)c2c1` displayed a solubility (kinetic) above 50.2 µg/mL. For `COc1ccc(NC(=S)Nc2cccnc2)c(OC)c1` the value was 42.5 µg/mL (≈ 147 µM); for `CN(C)S(=O)(=O)c1cccc(C(=O)NCC2CCCCC2)c1`, 2.8 µg/mL (≈ 8.63 µM); for `O=c1c2ccccc2nc(-c2ccccc2)n1O`, above 35.7 µg/mL. Take `O=c1c(Cc2ccc(F)cc2)c(O)ccn1CCc1ccccn1`: the solubility (kinetic) is above 48.7 µg/mL. In turn, `Cc1cccc(C)c1NC(=O)CNC(=O)C1CCCC1` displayed a kinetic solubility above 41.2 µg/mL. In the case of `COc1ccc(C(=O)N2CCN(c3ncccn3)CC2)cc1[N+](=O)[O-]` it was 50.5 µg/mL (≈ 147 µM); in that of `COc1cc(CNC(=O)C2CC2)ccc1OCc1ccccc1`, 8.4 µg/mL (≈ 27 µM).

For `O=C(NCC(=O)N1CCOCC1)c1ccc(Br)cc1`, the solubility (kinetic) is above 49.1 µg/mL. In turn, `CCOc1nc(NCCO)nc(Nc2ccccc2F)n1` returned a solubility (kinetic) above 44 µg/mL. For `CCCN(CCC)C(=O)c1cc2c(=O)[nH]c3ccc(C)cc3c2s1` the value was below 0.4 µg/mL; for `O=C(CSc1ncccn1)N1CCCc2ccccc21`, above 42.8 µg/mL. For `O=C(N/N=C/c1ccc2c(c1)OCO2)C1CC1` the value was above 34.8 µg/mL; for `COc1cc(OC)c(C2CC(=O)N3CN(C)CSC3=C2C#N)cc1OC` (centres undefined), 43.3 µg/mL (≈ 115 µM); for `N/C(CC(=O)Nc1ccc(F)cc1F)=N\OC(=O)c1cccs1`, 16.3 µg/mL (≈ 48 µM). The molecule `Cc1cc(C(=O)Nc2sccc2C#N)c2ccccc2n1` gave a solubility (kinetic) of 20.8 µg/mL (≈ 70.9 µM). The solubility kinetic values of the last two molecules are within 1.5-fold of each other. In the case of `COc1ccc(-c2csc(-c3cccs3)n2)c(OC)c1` it was 0.8 µg/mL (≈ 2.64 µM); in that of `Cc1ccc(NC2c3ccccc3C(=O)N2c2cccnc2)cc1` (centres undefined), 40.5 µg/mL (≈ 128 µM); in that of `CCOC(=O)c1ccc(NC(=O)NC2CC3CCC(C2)N3)cc1` (centres undefined), 43.5 µg/mL (≈ 137 µM). For `COc1cc(C(=O)Nc2nnc(C)s2)c([N+](=O)[O-])cc1OC` the value was above 48.6 µg/mL. With `CSc1ccccc1C(=O)Nc1ccccc1C(=O)NC(C)C`, the kinetic solubility is above 49.3 µg/mL. In the case of `OC(CNCc1ccccc1F)COc1cccc2ccccc12` (centres undefined) it was 39.6 µg/mL (≈ 122 µM); in that of `O=C(Nc1cc(-c2ccccc2)cs1)c1ccco1`, 4.7 µg/mL (≈ 17.5 µM); in that of `COc1ccc(Cl)cc1NC(=S)NC1CCCC1`, 3 µg/mL (≈ 10.5 µM). Molecule `COc1ccc(NC(=O)/C(C#N)=C/c2ccc(-c3ccccc3C(=O)O)o2)cc1` gave a kinetic solubility above 58.3 µg/mL. For `Cc1cc(C)nc(N2Cc3ccccc3C2=N)n1` the value was above 35.7 µg/mL; for `CC1=NN(c2ccccc2)C(=O)C1/C=C1\NC(=S)NC1=O` (centres undefined), above 45.1 µg/mL. In the case of `COc1cccc(CSc2nc(N)cc(N)n2)c1` it was 28.6 µg/mL (≈ 109 µM); in that of `COCCNS(=O)(=O)c1cc(OC)c(C)cc1C`, above 41 µg/mL.

Regarding `CC(=O)N1CCN(c2ccnc3cc(Cl)ccc23)CC1`, the kinetic solubility worked out at 34.3 µg/mL (≈ 118 µM). For `COc1ccccc1CNC(=O)CSc1n[nH]c(N)n1` the value was above 44 µg/mL; for `O=C(O)c1ccccc1Nc1ccnc(Cl)n1`, above 37.4 µg/mL.

`S=C(Nc1ccccc1)N1CCc2ccccc21` came in with a solubility (kinetic) of 23.8 µg/mL (≈ 93.6 µM). Turning to `COc1cc(CNc2ncnc3c2[nH]c2ccc(C)cc23)cc(OC)c1`, the kinetic solubility worked out at 0.7 µg/mL (≈ 2.01 µM). In the case of `C[C@@H](C(=O)Nc1cccnc1)n1c(=O)[nH]c2ccccc2c1=O` it was above 46.5 µg/mL; in that of `CCCCOC(=O)c1ccc(NC(=O)C(=O)NCCN(C)C)cc1`, 45.7 µg/mL (≈ 136 µM). In the case of `N#Cc1ccc(Cn2cc(C=O)c3ccccc32)cc1` it was 4 µg/mL (≈ 15.4 µM). In the case of `NS(=O)(=O)c1ccc(NC(=O)Nc2ccc(C(F)(F)F)cc2)cc1` it was below 0.3 µg/mL; in that of `Br.C(CCCN1CCCCC1)CCN1CCCCC1`, 61.8 µg/mL. On to `Br.CCn1c2c(c(=N)c3ccccc31)CCC2`, for which the kinetic solubility is above 44 µg/mL. Molecule `Cc1cc(SCC(=O)N2CCCC2=O)nc2c(C)cccc12` yielded a solubility (kinetic) of 2.3 µg/mL (≈ 7.32 µM). In the case of `COc1ccc(CNC(=O)Cn2ccc([N+](=O)[O-])n2)cc1OC` it was above 48 µg/mL; in that of `COc1ccc(N/C(N)=N/c2nc(C)cc(=O)[nH]2)cc1`, 6.8 µg/mL (≈ 24.9 µM); in that of `Cc1cc(C(=O)COc2cc(F)ccc2[N+](=O)[O-])c(C)n1C1CC1`, 3.3 µg/mL (≈ 9.93 µM).

`CCOc1ccc(/C=N/OCC(=O)NCc2ccco2)cc1` gave a solubility (kinetic) above 45.3 µg/mL. For the molecule `CC(C)CN(C(=O)CSc1nc(N)cc(N)n1)C1CCS(=O)(=O)C1` (centres undefined), the kinetic solubility is above 56 µg/mL.

On to `Cc1cccc(-c2noc(-c3ccno3)n2)c1`, for which the kinetic solubility stood at 4.8 µg/mL (≈ 21.1 µM).

Take `O=C1[C@@H]2CSCN2C(=O)CN1Cc1cccc(C(F)(F)F)c1`: the solubility (kinetic) stood at 44 µg/mL (≈ 133 µM).

Consider `Cc1ccc(OCc2ccc(-c3ccccc3)cc2)c([N+](=O)[O-])n1`, for which the solubility (kinetic) was 0.4 µg/mL (≈ 1.25 µM). This solubility kinetic is about 110-fold lower than that of the molecule before. In the case of `Cc1ccc(Cl)cc1NC(=O)CC1NC2CCCCC2NC1=O` (centres undefined) it was 38.6 µg/mL (≈ 115 µM); in that of `Cc1noc(C)c1C(=O)OCC(=O)N(C)C1CCS(=O)(=O)C1` (centres undefined), above 49.6 µg/mL. In the case of `CN(C)C(=S)NC(=O)C12CC3(C)CC(C)(CC(C)(C3)C1)C2` it was 1 µg/mL (≈ 3.24 µM); in that of `O=c1oc(Nc2cccc(Cl)c2)nc2ccccc12`, 0.5 µg/mL (≈ 1.83 µM); in that of `COc1ccc(C(=O)NC(=S)N2CC(C)OC(C)C2)cc1OC` (centres undefined), above 50.8 µg/mL. For `COC(=O)/C=C1/SC(=Nc2ccc(Cl)c(Cl)c2)NC1=O` the value was 1 µg/mL (≈ 3.02 µM); for `Cc1ccc(C(=O)NCCC(=O)Nc2ccccc2C)cc1`, above 44.5 µg/mL; for `CCc1c(C#N)sc(C(N)=O)c1CC`, above 31.2 µg/mL.

The molecule `CNc1nc2c(c(=O)n(C)c(=O)n2C)n1CCCc1ccccc1` had a kinetic solubility above 49.1 µg/mL. For `CCOC(=O)/C(=C/Nc1ccc(F)c(F)c1)[N+](=O)[O-]` the value was above 40.8 µg/mL; for `CC(=O)C1=C(C)NC2=C(C(=O)c3ccccc32)C1c1ccccc1` (centres undefined), 0.8 µg/mL (≈ 2.54 µM). `O=C(O)CC(CC(=O)N1CCOCC1)c1ccccc1` (centres undefined) came in with a kinetic solubility above 41.6 µg/mL. For `N#C/C(=C\N1CCOCC1)C(N)=O`, the kinetic solubility is above 27.2 µg/mL. In the case of `CC1=N/C(=C/c2ccco2)C(=O)O1` it was above 26.6 µg/mL; in that of `Cc1cnc(C(=O)N2CCN(S(=O)(=O)c3cccc(Br)c3)CC2)cn1`, above 63.8 µg/mL; in that of `CS(=O)(=O)O.c1cnc(N2CCN(Cc3ccc4c(c3)OCO4)CC2)nc1`, above 59.2 µg/mL. For the molecule `CCCCNC(=O)COC(=O)c1ccccc1F`, the kinetic solubility was 37.9 µg/mL (≈ 150 µM). In the case of `O=C(C1CC1)N1CCN(c2ccc([N+](=O)[O-])cc2)CC1` it was above 41.3 µg/mL. In the case of `Cc1cc(C)c2c(N)c(C(=O)Nc3ccccc3F)sc2n1` it was 0.4 µg/mL (≈ 1.27 µM); in that of `Cc1ccc(NCc2ccc([N+](=O)[O-])s2)cc1`, 13.7 µg/mL (≈ 55.2 µM). As for `O=C(O)c1ccccc1Nc1cccc(C(F)(F)F)c1`, the solubility (kinetic) is above 42.2 µg/mL. For `N#Cc1ccc(OCC(=O)OCC(=O)c2ccccc2)cc1` the value was above 44.3 µg/mL; for `Cc1nn(CC(=O)NC2(C)CCS(=O)(=O)C2)c(C)c1S(=O)(=O)N(C)C` (centres undefined), above 58.9 µg/mL. In the case of `CCCN(CCC)S(=O)(=O)c1ccc(C(=O)NCc2ccco2)cc1` it was 12.7 µg/mL (≈ 34.8 µM); in that of `O=C(Cc1nc2ccccc2[nH]1)c1ccc(Cl)cc1`, 24.2 µg/mL (≈ 89.4 µM); in that of `COc1cccc(CNc2nccs2)c1O`, above 35.4 µg/mL. For `CN1CCN(C(=S)Nc2ccc(S(N)(=O)=O)cc2)CC1` the value was above 47.2 µg/mL; for `CC(CCc1ccccc1)NS(=O)(=O)c1ccccc1F` (centres undefined), 39 µg/mL (≈ 127 µM). In the case of `COc1ccc(/C(N)=N/OC(=O)CCc2ccccc2)cc1`, the solubility (kinetic) was 9.9 µg/mL (≈ 33.2 µM).

Take `Cc1ccc(C)c(NC(=O)CSc2nc(C)cs2)c1`: the solubility (kinetic) came out at 39.9 µg/mL (≈ 136 µM). Compared with the last molecule, the solubility kinetic is about 4-fold higher. In the case of `Cn1c(SCC(=O)NC2CCS(=O)(=O)C2)nc2ccccc21` (centres undefined), the kinetic solubility was above 50.9 µg/mL. In the case of `Cc1cc(NS(=O)(=O)c2cc(Cl)sc2Cl)no1` it was above 47 µg/mL. For `O=C(O)CCC(=O)Nc1cccc(-c2nc3ccccc3o2)c1` the value was above 46.5 µg/mL.

With `CC1Cc2ccccc2N1C(=O)c1ccc(F)c(S(=O)(=O)N2CCOCC2)c1` (centres undefined), the solubility (kinetic) turned out to be 50.3 µg/mL (≈ 124 µM).

For orientation: solubility (kinetic) means the concentration staying in solution when a stock, usually in DMSO, is diluted into the medium.

Source of the values: PubChem BioAssay AID1996.
